# Assay results reported in US9603849B2, “Uses of orvepitant” (NERRE THERAPEUTICS LIMITED, priority 2012, dated 2017).
# Molecular target: NK-1 receptor (Meriones unguiculatus, UniProt Q5DUB1)
# Experiment: GR73632-induced hindlimb scratching behaviour in the Mongolian gerbil
# Type: in vivo
# Conditions: mean ± s.e.m.
# Excerpt: 5) Particularly the antipruritic effect of orvepitant maleate was determinated in GR73632-induced scratching behaviour in the Mongolian gerbil. According to this metholody the scratching behaviour was induced by GR73632 which is a specific agonist of the NK-1 receptor.
# 72 male Mongolian gerbils (58-78 g) after a minimum habituation period of 10 days prior to study commencement, were acclimatised to the procedure room in their home cages, with food and water available ad libitum. The day before the experiment was due to commence a 1 cm×1 cm squared area between the shoulder blades was shaved free of hair.
# Habituation to the apparatus (custom made observation chambers; approximately 30×30 cm; 2 animals per observation) took place 30 minutes prior to induction of scratching behaviours using GR73632.
# A 10 mg/kg stock solution of orvepitant maleate was made by dissolving 20 mg of orvepitant maleate Form 1 in 20 mls of vehicle (5% DMSO & 95% HPMC (0.5%)). This stock solution was serially diluted to prepare doses of 0.1, 0.3, 1.0, 3.0 or 10 mg/kg orvepitant maleate.
# At T=−60 mins mongolian gerbils were dosed with orvepitant maleate (0.1, 0.3, 1.0, 3.0 or, 10 mg/kg p.o.). Gerbils were allocated to dosing groups based on a Latin square design. 30 Minutes later (T=−30 mins) gerbils were placed into the observation chamber for 30 minutes habituation. At T=0 Gerbils were then dosed with GR73632 (30 nmol/100 uL; i.d.) between the shoulder blades and their subsequent hindlimb scratching behaviour recorded using GeoVision surveillance software over a 30 minute period.
# Playing back of the video served for counting scratching behaviour. […] Cumulative frequency and duration (secs) of scratching was scored in 5 min epochs. Treatment groups were randomised based on a Latin Square design. The experimenter was blinded to the treatment groups.
# Repeated measures ANOVA followed by Planned comparison test using GraphPad Prism. (p<0.05 considered significant). Data were analysed by comparing treatment groups to control group at each time point.
# Sequence of NK-1 receptor (Q5DUB1 whole entry): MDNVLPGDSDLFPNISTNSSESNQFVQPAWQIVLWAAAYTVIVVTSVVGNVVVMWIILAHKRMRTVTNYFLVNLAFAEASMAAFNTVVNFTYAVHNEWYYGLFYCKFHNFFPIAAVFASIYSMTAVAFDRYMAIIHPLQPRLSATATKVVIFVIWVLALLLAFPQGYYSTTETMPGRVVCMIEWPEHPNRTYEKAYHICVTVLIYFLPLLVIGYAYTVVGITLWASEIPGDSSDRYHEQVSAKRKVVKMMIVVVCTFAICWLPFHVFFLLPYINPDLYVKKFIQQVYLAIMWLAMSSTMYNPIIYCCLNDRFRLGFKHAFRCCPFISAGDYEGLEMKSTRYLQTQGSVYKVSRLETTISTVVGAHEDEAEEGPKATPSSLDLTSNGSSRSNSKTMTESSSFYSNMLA
compound,measurement,setting,value
"Cc1cc(F)ccc1[C@H]1C[C@@H](N2CCN3C(=O)CC[C@H]3C2)CCN1C(=O)N(C)[C@H](C)c1cc(C(F)(F)F)cc(C(F)(F)F)c1.O=C(O)/C=C\C(=O)O [orvepitant maleate, 2-(R)-(4-Fluoro-2-methyl-phenyl)-4-(S)-((8aS)-6-oxo-hexahydro-pyrrolo[1,2-a]-pyrazin-2-yl)-piperidine-1-carboxylic acid [1-(R)-(3,5-bis-trifluoromethyl-phenyl)-ethyl]-methylamide maleate]",Cumulative duration of hindlimb scratching,"0.1 mg/kg p.o., 0-5 mins after GR73632 i.d., vehicle 5.35 ± 1.37",NS 2.76 ± 0.71 secs
same,Cumulative frequency of hindlimb scratching,"0.1 mg/kg p.o., 0-5 mins after GR73632 i.d., vehicle 7.75 ± 2.18",NS4.08 ± 1.45
same,Cumulative duration of hindlimb scratching,"0.1 mg/kg p.o., 5-10 mins after GR73632 i.d., vehicle 11.71 ± 1.93",**4.20 ± 0.85 secs
same,Cumulative frequency of hindlimb scratching,"0.1 mg/kg p.o., 5-10 mins after GR73632 i.d., vehicle 14.41 ± 2.49",**5.83 ± 1.55
same,Cumulative duration of hindlimb scratching,"0.1 mg/kg p.o., 10-15 mins after GR73632 i.d., vehicle 16.54 ± 2.58",***5.96 ± 1.16 secs
same,Cumulative frequency of hindlimb scratching,"0.1 mg/kg p.o., 10-15 mins after GR73632 i.d., vehicle 20.25 ± 2.97",***7.91 ± 1.74
same,Cumulative duration of hindlimb scratching,"0.1 mg/kg p.o., 15-20 mins after GR73632 i.d., vehicle 20.08 ± 2.83",***7.86 ± 1.67 secs
same,Cumulative frequency of hindlimb scratching,"0.1 mg/kg p.o., 15-20 mins after GR73632 i.d., vehicle 24.33 ± 3.22",***9.66 ± 1.92
same,Cumulative duration of hindlimb scratching,"0.1 mg/kg p.o., 20-25 mins after GR73632 i.d., vehicle 23.19 ± 2.80",***8.99 ± 2.09 secs
same,Cumulative frequency of hindlimb scratching,"0.1 mg/kg p.o., 20-25 mins after GR73632 i.d., vehicle 28.25 ± 3.26",***10.91 ± 2.07
same,Cumulative duration of hindlimb scratching,"0.1 mg/kg p.o., 25-30 mins after GR73632 i.d., vehicle 25.69 ± 3.026",***9.67 ± 2.14 secs
same,Cumulative frequency of hindlimb scratching,"0.1 mg/kg p.o., 25-30 mins after GR73632 i.d., vehicle 32.00 ± 3.60",***11.58 ± 2.12
same,Cumulative duration of hindlimb scratching,"0.3 mg/kg p.o., 0-5 mins after GR73632 i.d., vehicle 5.35 ± 1.37",NS 2.06 ± 0.62 secs
same,Cumulative frequency of hindlimb scratching,"0.3 mg/kg p.o., 0-5 mins after GR73632 i.d., vehicle 7.75 ± 2.18",NS3.00 ± 0.88
same,Cumulative duration of hindlimb scratching,"0.3 mg/kg p.o., 5-10 mins after GR73632 i.d., vehicle 11.71 ± 1.93",**3.50 ± 0.88 secs
same,Cumulative frequency of hindlimb scratching,"0.3 mg/kg p.o., 5-10 mins after GR73632 i.d., vehicle 14.41 ± 2.49",***4.91 ± 1.15
same,Cumulative duration of hindlimb scratching,"0.3 mg/kg p.o., 10-15 mins after GR73632 i.d., vehicle 16.54 ± 2.58",***5.86 ± 1.44 secs
same,Cumulative frequency of hindlimb scratching,"0.3 mg/kg p.o., 10-15 mins after GR73632 i.d., vehicle 20.25 ± 2.97",***7.50 ± 1.56
same,Cumulative duration of hindlimb scratching,"0.3 mg/kg p.o., 15-20 mins after GR73632 i.d., vehicle 20.08 ± 2.83",***7.09 ± 1.63 secs
same,Cumulative frequency of hindlimb scratching,"0.3 mg/kg p.o., 15-20 mins after GR73632 i.d., vehicle 24.33 ± 3.22",***8.66 ± 1.61
same,Cumulative duration of hindlimb scratching,"0.3 mg/kg p.o., 20-25 mins after GR73632 i.d., vehicle 23.19 ± 2.80",***8.58 ± 1.93 secs
same,Cumulative frequency of hindlimb scratching,"0.3 mg/kg p.o., 20-25 mins after GR73632 i.d., vehicle 28.25 ± 3.26",***10.00 ± 1.62
same,Cumulative duration of hindlimb scratching,"0.3 mg/kg p.o., 25-30 mins after GR73632 i.d., vehicle 25.69 ± 3.026",***10.27 ± 2.17 secs
same,Cumulative frequency of hindlimb scratching,"0.3 mg/kg p.o., 25-30 mins after GR73632 i.d., vehicle 32.00 ± 3.60",***11.75 ± 1.90
same,Cumulative duration of hindlimb scratching,"1.0 mg/kg p.o., 0-5 mins after GR73632 i.d., vehicle 5.35 ± 1.37",NS 2.74 ± 1.06 secs
same,Cumulative frequency of hindlimb scratching,"1.0 mg/kg p.o., 0-5 mins after GR73632 i.d., vehicle 7.75 ± 2.18",NS3.75 ± 1.30
same,Cumulative duration of hindlimb scratching,"1.0 mg/kg p.o., 5-10 mins after GR73632 i.d., vehicle 11.71 ± 1.93",**4.51 ± 1.05 secs
same,Cumulative frequency of hindlimb scratching,"1.0 mg/kg p.o., 5-10 mins after GR73632 i.d., vehicle 14.41 ± 2.49",**5.91 ± 1.25
same,Cumulative duration of hindlimb scratching,"1.0 mg/kg p.o., 10-15 mins after GR73632 i.d., vehicle 16.54 ± 2.58",***4.92 ± 1.13 secs
same,Cumulative frequency of hindlimb scratching,"1.0 mg/kg p.o., 10-15 mins after GR73632 i.d., vehicle 20.25 ± 2.97",***6.41 ± 1.29
same,Cumulative duration of hindlimb scratching,"1.0 mg/kg p.o., 15-20 mins after GR73632 i.d., vehicle 20.08 ± 2.83",***6.02 ± 1.28 secs
same,Cumulative frequency of hindlimb scratching,"1.0 mg/kg p.o., 15-20 mins after GR73632 i.d., vehicle 24.33 ± 3.22",***8.00 ± 1.39
same,Cumulative duration of hindlimb scratching,"1.0 mg/kg p.o., 20-25 mins after GR73632 i.d., vehicle 23.19 ± 2.80",***7.48 ± 1.55 secs
same,Cumulative frequency of hindlimb scratching,"1.0 mg/kg p.o., 20-25 mins after GR73632 i.d., vehicle 28.25 ± 3.26",***9.66 ± 1.71
same,Cumulative duration of hindlimb scratching,"1.0 mg/kg p.o., 25-30 mins after GR73632 i.d., vehicle 25.69 ± 3.026",***10.00 ± 2.17 secs
same,Cumulative frequency of hindlimb scratching,"1.0 mg/kg p.o., 25-30 mins after GR73632 i.d., vehicle 32.00 ± 3.60",***12.08 ± 2.25
same,Cumulative duration of hindlimb scratching,"3.0 mg/kg p.o., 0-5 mins after GR73632 i.d., vehicle 5.35 ± 1.37",NS 0.96 ± 0.32 secs
same,Cumulative frequency of hindlimb scratching,"3.0 mg/kg p.o., 0-5 mins after GR73632 i.d., vehicle 7.75 ± 2.18",NS1.58 ± 0.46
same,Cumulative duration of hindlimb scratching,"3.0 mg/kg p.o., 5-10 mins after GR73632 i.d., vehicle 11.71 ± 1.93",***1.30 ± 0.38 secs
same,Cumulative frequency of hindlimb scratching,"3.0 mg/kg p.o., 5-10 mins after GR73632 i.d., vehicle 14.41 ± 2.49",***2.16 ± 0.58
same,Cumulative duration of hindlimb scratching,"3.0 mg/kg p.o., 10-15 mins after GR73632 i.d., vehicle 16.54 ± 2.58",***1.79 ± 0.39 secs
same,Cumulative frequency of hindlimb scratching,"3.0 mg/kg p.o., 10-15 mins after GR73632 i.d., vehicle 20.25 ± 2.97",***2.83 ± 0.57
same,Cumulative duration of hindlimb scratching,"3.0 mg/kg p.o., 15-20 mins after GR73632 i.d., vehicle 20.08 ± 2.83",***2.415 ± 0.47 secs
same,Cumulative frequency of hindlimb scratching,"3.0 mg/kg p.o., 15-20 mins after GR73632 i.d., vehicle 24.33 ± 3.22",***3.66 ± 0.64
same,Cumulative duration of hindlimb scratching,"3.0 mg/kg p.o., 20-25 mins after GR73632 i.d., vehicle 23.19 ± 2.80",***2.59 ± 0.50 secs
same,Cumulative frequency of hindlimb scratching,"3.0 mg/kg p.o., 20-25 mins after GR73632 i.d., vehicle 28.25 ± 3.26",***4.00 ± 0.67
same,Cumulative duration of hindlimb scratching,"3.0 mg/kg p.o., 25-30 mins after GR73632 i.d., vehicle 25.69 ± 3.026",***3.09 ± 0.61 secs
same,Cumulative frequency of hindlimb scratching,"3.0 mg/kg p.o., 25-30 mins after GR73632 i.d., vehicle 32.00 ± 3.60",***4.58 ± 0.76
same,Cumulative duration of hindlimb scratching,"10.0 mg/kg p.o., 0-5 mins after GR73632 i.d., vehicle 5.35 ± 1.37",NS 0.57 ± 0.29 secs
same,Cumulative frequency of hindlimb scratching,"10.0 mg/kg p.o., 0-5 mins after GR73632 i.d., vehicle 7.75 ± 2.18",*0.91 ± 0.43
same,Cumulative duration of hindlimb scratching,"10.0 mg/kg p.o., 5-10 mins after GR73632 i.d., vehicle 11.71 ± 1.93",***1.13 ± 0.38 secs
same,Cumulative frequency of hindlimb scratching,"10.0 mg/kg p.o., 5-10 mins after GR73632 i.d., vehicle 14.41 ± 2.49",***1.66 ± 0.60
same,Cumulative duration of hindlimb scratching,"10.0 mg/kg p.o., 10-15 mins after GR73632 i.d., vehicle 16.54 ± 2.58",***2.38 ± 0.78 secs
same,Cumulative frequency of hindlimb scratching,"10.0 mg/kg p.o., 10-15 mins after GR73632 i.d., vehicle 20.25 ± 2.97",***2.58 ± 0.73
same,Cumulative duration of hindlimb scratching,"10.0 mg/kg p.o., 15-20 mins after GR73632 i.d., vehicle 20.08 ± 2.83",***3.22 ± 0.84 secs
same,Cumulative frequency of hindlimb scratching,"10.0 mg/kg p.o., 15-20 mins after GR73632 i.d., vehicle 24.33 ± 3.22",***3.58 ± 0.73
same,Cumulative duration of hindlimb scratching,"10.0 mg/kg p.o., 20-25 mins after GR73632 i.d., vehicle 23.19 ± 2.80",***4.36 ± 1.18 secs
same,Cumulative frequency of hindlimb scratching,"10.0 mg/kg p.o., 20-25 mins after GR73632 i.d., vehicle 28.25 ± 3.26",***5.00 ± 0.92
same,Cumulative duration of hindlimb scratching,"10.0 mg/kg p.o., 25-30 mins after GR73632 i.d., vehicle 25.69 ± 3.026",***5.24 ± 1.35 secs
same,Cumulative frequency of hindlimb scratching,"10.0 mg/kg p.o., 25-30 mins after GR73632 i.d., vehicle 32.00 ± 3.60",***5.91 ± 1.16
